Experimental data reported in ChEMBL document CHEMBL3758139, “Novel thiol-based histone deacetylase inhibitors bearing 3-phenyl-1H-pyrazole-5-carboxamide scaffold as surface recognition motif: Design, synthesis and SAR study” (Bioorg Med Chem Lett, 2016).

Experiments:
Histone deacetylase 1 = Histone deacetylase 1 (Homo sapiens, UniProt Q13547); assay: Inhibition of recombinant human HDAC1
Histone deacetylase = assay: Inhibition of HDAC in human HeLa nuclear extract; format: protein assay
[1] = Retention time of the compound; format: physicochemical
[2] = biological target: T1, Protein deacetylase HDAC6 (Homo sapiens, UniProt Q9UBN7); assay: Inhibition of recombinant human HDAC6
T1 sequence (Q9UBN7 whole entry): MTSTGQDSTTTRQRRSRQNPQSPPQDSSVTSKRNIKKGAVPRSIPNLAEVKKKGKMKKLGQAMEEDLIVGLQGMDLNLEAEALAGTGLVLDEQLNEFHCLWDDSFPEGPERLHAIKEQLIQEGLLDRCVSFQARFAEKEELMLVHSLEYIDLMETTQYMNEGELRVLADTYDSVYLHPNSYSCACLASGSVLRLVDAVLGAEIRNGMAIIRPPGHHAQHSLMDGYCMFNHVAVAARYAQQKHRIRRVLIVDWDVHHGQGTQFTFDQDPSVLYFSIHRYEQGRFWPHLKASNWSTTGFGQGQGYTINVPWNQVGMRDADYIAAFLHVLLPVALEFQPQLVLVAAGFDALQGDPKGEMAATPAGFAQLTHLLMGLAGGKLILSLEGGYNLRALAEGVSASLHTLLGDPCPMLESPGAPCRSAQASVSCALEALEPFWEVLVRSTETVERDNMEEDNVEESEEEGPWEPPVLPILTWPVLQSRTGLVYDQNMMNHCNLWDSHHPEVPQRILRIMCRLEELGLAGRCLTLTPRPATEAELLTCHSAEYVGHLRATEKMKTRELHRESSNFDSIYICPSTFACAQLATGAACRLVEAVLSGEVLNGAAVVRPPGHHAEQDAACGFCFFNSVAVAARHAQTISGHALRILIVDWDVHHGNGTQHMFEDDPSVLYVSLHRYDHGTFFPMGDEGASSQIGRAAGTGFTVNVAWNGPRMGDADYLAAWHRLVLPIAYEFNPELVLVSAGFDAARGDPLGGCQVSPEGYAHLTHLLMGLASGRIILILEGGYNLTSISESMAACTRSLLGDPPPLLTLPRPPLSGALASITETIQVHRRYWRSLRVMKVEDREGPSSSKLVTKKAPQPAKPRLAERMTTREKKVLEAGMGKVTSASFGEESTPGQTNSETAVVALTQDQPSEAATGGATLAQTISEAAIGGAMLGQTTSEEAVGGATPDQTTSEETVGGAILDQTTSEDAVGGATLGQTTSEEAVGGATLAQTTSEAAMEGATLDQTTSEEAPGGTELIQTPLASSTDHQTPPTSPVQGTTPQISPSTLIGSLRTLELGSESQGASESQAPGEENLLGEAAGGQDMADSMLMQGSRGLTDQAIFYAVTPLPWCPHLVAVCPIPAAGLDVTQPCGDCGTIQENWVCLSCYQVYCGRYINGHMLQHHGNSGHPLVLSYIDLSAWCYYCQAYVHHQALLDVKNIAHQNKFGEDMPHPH

Histone deacetylase 1, sequence (Q13547 whole entry): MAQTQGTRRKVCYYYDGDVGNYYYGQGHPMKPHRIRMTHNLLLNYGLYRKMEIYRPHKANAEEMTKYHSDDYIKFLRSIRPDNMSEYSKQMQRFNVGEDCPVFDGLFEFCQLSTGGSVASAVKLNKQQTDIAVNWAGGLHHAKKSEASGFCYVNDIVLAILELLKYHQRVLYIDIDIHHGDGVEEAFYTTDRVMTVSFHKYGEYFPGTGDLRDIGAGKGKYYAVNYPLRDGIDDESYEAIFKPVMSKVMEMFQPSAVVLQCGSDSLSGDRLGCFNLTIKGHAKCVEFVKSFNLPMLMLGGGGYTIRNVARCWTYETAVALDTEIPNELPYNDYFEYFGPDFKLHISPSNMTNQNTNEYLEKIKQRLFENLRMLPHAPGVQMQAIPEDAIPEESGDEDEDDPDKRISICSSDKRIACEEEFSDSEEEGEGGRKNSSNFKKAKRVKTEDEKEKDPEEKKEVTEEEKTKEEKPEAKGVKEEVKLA

IC50 (Histone deacetylase 1)	IC50 (Histone deacetylase)	Retention_time [1]	IC50 [2]	Structure (SMILES)
580 nM	690 nM	3.37 min	760 nM	O=C(NCCCCCCS)c1cc(-c2ccc(F)cc2)n[nH]1
> 10000 nM	> 10000 nM	11.92 min	> 10000 nM	CCCCn1nc(-c2ccc(F)cc2)cc1C(=O)NCCCCCCS
> 10000 nM	> 10000 nM	4.29 min	> 10000 nM	CCn1nc(C(=O)NCCCCCCS)cc1-c1ccc(F)cc1
220 nM	160 nM	3.77 min	40 nM	O=C(O)Cn1nc(-c2ccc(F)cc2)cc1C(=O)NCCCCCCS
> 10000 nM	> 10000 nM	2.74 min	> 10000 nM	O=C(CCS)NCCNC(=O)c1cc(-c2ccc(F)cc2)[nH]n1
850 nM	980 nM	5.67 min	880 nM	O=C(NCCCCCCS)c1cc(-c2ccc(F)cc2)on1
140 nM				C/C=C1\NC(=O)[C@H]2CSSCC/C=C/[C@H](CC(=O)N[C@H](C(C)C)C(=O)N2)OC(=O)[C@H](C(C)C)NC1=O [ROMIDEPSIN]
2100 nM	3000 nM	5 min	1300 nM	O=C(NCCCCCS)c1cc(-c2ccc(F)cc2)on1
1900 nM	660 nM	7.77 min	250 nM	O=C(O)Cn1nc(C(=O)NCCCCCCS)cc1-c1ccc(F)cc1
> 10000 nM	> 10000 nM	7.17 min	7400 nM	CC(C)n1nc(-c2ccc(F)cc2)cc1C(=O)NCCCCCCS
> 10000 nM	> 10000 nM	3.86 min	6900 nM	Cn1nc(C(=O)NCCCCCCS)cc1-c1ccc(F)cc1
1400 nM	1500 nM	3.25 min	880 nM	O=C(CS)NCCCNC(=O)c1cc(-c2ccc(F)cc2)[nH]n1
1800 nM	810 nM	6.9 min	450 nM	O=C(O)CCCn1nc(C(=O)NCCCCCCS)cc1-c1ccc(F)cc1
> 10000 nM	3200 nM	5.16 min	2900 nM	Cn1nc(-c2ccc(F)cc2)cc1C(=O)NCCCCCCS
130 nM	80 nM	13.54 min	90 nM	O=C(O)CCCn1nc(-c2ccc(F)cc2)cc1C(=O)NCCCCCCS
1300 nM	1200 nM	3.81 min	470 nM	O=C(NCCCCCCS)c1cc(-c2ccc(F)cc2)nn1CCCO
> 10000 nM	> 10000 nM	7.52 min	> 10000 nM	O=C(NCCCCCCS)c1cc(-c2ccc(F)cc2)nn1Cc1ccccc1
2300 nM	2200 nM	2.85 min	1800 nM	O=C(CS)NCCNC(=O)c1cc(-c2ccc(F)cc2)[nH]n1
> 10000 nM	> 10000 nM	3.37 min	5800 nM	O=C(NCCCS)c1cc(-c2ccc(F)cc2)on1
2700 nM	400 nM	2.88 min	330 nM	O=C(O)CCn1nc(C(=O)NCCCCCCS)cc1-c1ccc(F)cc1
3300 nM	2100 nM	3.13 min	1400 nM	O=C(NCCCCCCS)c1cc(-c2ccc(F)cc2)n(CCO)n1
> 10000 nM	> 10000 nM	5.49 min	> 10000 nM	O=C(NCCCCCCS)c1cc(-c2ccc(F)cc2)n(Cc2ccccc2)n1
> 10000 nM	> 10000 nM	5.79 min	5000 nM	CCn1nc(-c2ccc(F)cc2)cc1C(=O)NCCCCCCS
